Reference: patent US20250134907A1, “FUSED DIAZEPINES AS AGONISTS OF THE INSULIN-LIKE 3 (INSL3) PEPTIDE RECEPTOR RXFP2 AND METHODS OF USE THEREOF” (The United States of America,as represented by the …, priority 2022, published 2025)

Molecular target: T1, RXFP2 (Homo sapiens, UniProt Q8WXD0)
T1 construct: expressed in transfected cells
Assay: HTRF cAMP assay in HEK293T cells stably expressing RXFP2 (HEK-RXFP2)
Assay type: cell-based
Conditions: for % EFF vs. 1 nM INSL3 (b): normalized to 1 nM INSL3 cAMP response; for % EFF vs. 100 nM INSL3 (c): normalized to 100 nM INSL3 cAMP response; for % EFF vs. 1 nM INSL3 (a): maximum cAMP response normalized to 1 nM INSL3 response
Procedure: Compound efficacy and EC50 were determined by measuring cAMP induction in vitro. HEK293T cells stably expressing RXFP2 (HEK-RXFP2) produce cAMP when RXFP2 is activated, which can be measured in an antibody-based immunoassay utilizing a fluorescent readout (cAMP Gs HiRange Kit, PerkinElmer, Waltham, MA). HEK-RXFP2 cells were seeded in 96-well plates in serum-free DMEM and incubated overnight at 37° C., 5% CO2. Plates were then treated with a compound titration up to 25 μM or INSL3 control, in the presence of isobutylmethylxanthine phosphodiesterase inhibitor (IBMX) at 200 μM to amplify the cAMP signal, for 1 hour at 37° C., 5% CO2 before being processed as per kit instructions. Table 7 lists the efficacy and EC50 of compounds tested under different experimental conditions. […] In condition (a), 20,000 cells were seeded per well in the 96 well plate, and efficacy was determined by normalizing the maximum compound cAMP response to the 1 nM INSL3 cAMP response (% Efficacy 1 nM INSL3 (a)). In condition (b), 10,000 cells were seeded per well, and compound response was normalized to the 1 nM INSL3 cAMP response (% Efficacy 1 nM INSL3 (b)). In condition (c), 7,500 cells were seeded per well, compound response was normalized to the 100 nM INSL3 cAMP response, and IBMX was omitted (% Efficacy 100 nM INSL3 (c)). A range is given when compounds were tested multiple times. Where compounds were tested under multiple experimental conditions, the EC50 listed for the corresponding condition is marked (a) through (c) to correlate. When EC50 could not be calculated from the dose-response curve, EC50 is listed as not determined (ND).

[1] = condition (b): 10,000 cells/well, IBMX 200 μM
[2] = condition (c): 7,500 cells/well, IBMX omitted
[3] = condition (a): 20,000 cells/well, IBMX 200 μM

T1 sequence (Q8WXD0 whole entry): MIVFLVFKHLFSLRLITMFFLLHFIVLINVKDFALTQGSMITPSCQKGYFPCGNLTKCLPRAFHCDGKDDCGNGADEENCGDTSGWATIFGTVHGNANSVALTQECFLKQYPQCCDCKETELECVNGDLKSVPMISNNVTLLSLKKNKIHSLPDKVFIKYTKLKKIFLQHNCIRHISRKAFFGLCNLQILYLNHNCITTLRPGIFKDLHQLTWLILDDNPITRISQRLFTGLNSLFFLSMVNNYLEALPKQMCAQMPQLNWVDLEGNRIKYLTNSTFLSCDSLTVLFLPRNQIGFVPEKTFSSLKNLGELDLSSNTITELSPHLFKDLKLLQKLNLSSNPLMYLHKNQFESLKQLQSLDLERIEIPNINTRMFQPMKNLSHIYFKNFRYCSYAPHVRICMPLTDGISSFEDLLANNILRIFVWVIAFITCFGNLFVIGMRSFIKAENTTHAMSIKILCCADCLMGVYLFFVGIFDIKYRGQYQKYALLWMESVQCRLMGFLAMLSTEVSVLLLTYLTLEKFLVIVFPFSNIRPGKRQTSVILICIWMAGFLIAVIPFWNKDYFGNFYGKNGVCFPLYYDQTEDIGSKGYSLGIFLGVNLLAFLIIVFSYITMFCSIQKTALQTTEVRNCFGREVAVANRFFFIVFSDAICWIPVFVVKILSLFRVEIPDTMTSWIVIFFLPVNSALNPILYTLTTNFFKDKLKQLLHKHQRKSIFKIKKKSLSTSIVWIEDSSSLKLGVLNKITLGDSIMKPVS

Row | SMILES | % EFF vs. 1 nM INSL3 (b) [1] | % EFF vs. 1 nM INSL3 (a) [3] | also measured
1 | O=C1Nc2ccc(-c3cc(C(F)(F)F)ccc3F)cc2C(=O)N2CCN(C(=O)COc3ccc(OC(F)(F)F)cc3Cl)CC12 (racemic) [Example 104, 2-(2-(2-chloro-4-(trifluoromethoxy)phenoxy)acetyl)-8-(2-fluoro-5-(trifluoromethyl)phenyl)-1,3,4,12a-tetrahydrobenzo[e]pyrazino[1,2-a][1,4]diazepine-6,12 (2H, 11H)-dione] | 67.7% |  | EC50 [1]: 17.7 nM
2 | N#Cc1cc(-c2ccc3c(c2)C(=O)N2CCN(C(=O)COc4ccc(OC(F)(F)F)cc4Cl)CC2C(=O)N3)cc(C(F)(F)F)c1 (racemic) [Example 106, 3-(2-(2-(2-chloro-4-(trifluoromethoxy)phenoxy)acetyl)-6,12-dioxo-1,2,3,4,6,11,12,12a-octahydrobenzo[e]pyrazino[1,2-a]1[1,4]diazepin-8-yl)-5-(trifluoromethyl)benzonitrile] | 50.30% |  | EC50 [1]: 31.5 nM
3 | O=C1Nc2cnc(-c3cc(C(F)(F)F)cc(C(F)(F)F)c3)cc2C(=O)N2CCN(C(=O)COc3ccc(OC(F)(F)F)cc3I)C[C@@H]12 (single isomer, unassigned) [Example 196] |  |  | EC50 [2]: 984 nM; % EFF vs. 100 nM INSL3 (c) [2]: 109.23%
4 | O=C1Nc2cnc(-c3cc(C(F)(F)F)cc(C(F)(F)F)c3)cc2C(=O)N2CCN(C(=O)COc3ccc(OC(F)(F)F)cc3Br)C[C@@H]12 (single isomer, unassigned) [Example 197] |  |  | % EFF vs. 100 nM INSL3 (c) [2]: 104.06%
5 | O=C1Nc2ncc(-c3cc(C(F)(F)F)cc(C(F)(F)F)c3)cc2C(=O)N2CCN(C(=O)COc3ccc(OC(F)(F)F)cc3I)C[C@@H]12 (single isomer, unassigned) [Example 202] |  |  | EC50 [2]: 40.7 nM; % EFF vs. 100 nM INSL3 (c) [2]: 102.23%
6 | O=C1Nc2ccc(-c3cc(C(F)(F)F)cc(C(F)(F)F)c3)nc2C(=O)N2CCN(C(=O)COc3ccc(OC(F)(F)F)cc3I)C[C@@H]12 (single isomer, unassigned) [Example 206] |  |  | EC50 [2]: 563 nM; % EFF vs. 100 nM INSL3 (c) [2]: 60.89%
7 | Cc1cc(OC(F)(F)F)ccc1OCC(=O)N1CCN2C(=O)c3cc(-c4ccnc(C(F)(F)F)c4)ccc3NC(=O)C2C1 (stereo not drawn) [Example 40, 2-(2-(2-methyl-4-(trifluoromethoxy)phenoxy)acetyl)-8-(2-(trifluoromethyl)pyridin-4-yl)-1,3,4,12a-tetrahydrobenzo[e]pyrazino[1,2-a][1,4]diazepine-6,12 (2H, 11H)-dione] | 47.69% |  | 
8 | Cc1cc(OC(F)(F)F)ccc1OCC(=O)N1CCN2C(=O)c3cc(-c4cncc(C(F)(F)F)c4)ccc3NC(=O)C2C1 (stereo not drawn) [Example 41, 2-(2-(2-methyl-4-(trifluoromethoxy)phenoxy)acetyl)-8-(5-(trifluoromethyl)pyridin-3-yl)-1,3,4,12a-tetrahydrobenzo[e]pyrazino[1,2-a][1,4]diazepine-6,12 (2H, 11H)-dione] | 33.78% |  | 
9 | O=C1Nc2ccc(-c3cccc(C(F)(F)F)c3)cc2C(=O)N2CCN(C(=O)COc3ccc(OC(F)F)cc3F)CC12 (stereo not drawn) [Example 55, 2-(2-(4-(difluoromethoxy)-2-fluorophenoxy)acetyl)-8-(3-(trifluoromethyl)phenyl)-1,3,4,12a-tetrahydrobenzo[e]pyrazino[1,2-a][1,4]diazepine-6,12 (2H, 11H)-dione] |  | 20.07-42.35% | EC50 [3]: 24.4 to 59.4 nM
10 | Cc1cc(OC(F)(F)F)ccc1OCC(=O)N1CCN2C(=O)c3cc(-c4cccc(C(F)(F)F)c4)ccc3NC(=O)C2C1 (stereo not drawn) [Example 64, 2-(2-(2-methyl-4-(trifluoromethoxy)phenoxy)acetyl)-8-(3-(trifluoromethyl)phenyl)-1,3,4,12a-tetrahydrobenzo[e]pyrazino[1,2-a][1,4]diazepine-6,12 (2H, 11H)-dione] |  | 56.29-60.35% | EC50 [3]: 37 to 56.6 nM
11 | O=C1Nc2ccc(-c3cccc(C(F)(F)F)c3)cc2C(=O)N2CCN(C(=O)COc3ccc(C(F)(F)F)c(F)c3F)CC12 (stereo not drawn) [Example 68, 2-(2-(2,3-difluoro-4-(trifluoromethyl)phenoxy)acetyl)-8-(3-(trifluoromethyl)phenyl)-1,3,4,12a-tetrahydrobenzo[e]pyrazino[1,2-a][1,4]diazepine-6,12 (2H, 11H)-dione] |  | 33.99% | EC50 [3]: 8.56 nM
12 | O=C1Nc2ccc(-c3cccc(C(F)(F)F)c3)cc2C(=O)N2CCN(C(=O)COc3ccc(OC(F)(F)F)cc3F)CC12 (stereo not drawn) [Example 101, 2-(2-(2-fluoro-4-(trifluoromethoxy)phenoxy)acetyl)-8-(3-(trifluoromethyl)phenyl)-1,3,4,12a-tetrahydrobenzo[e]pyrazino[1,2-a][1,4]diazepine-6,12 (2H, 11H)-dione] |  | 35.5% | EC50 [3]: 24.5 nM
13 | Cc1cc(-c2ccc3c(c2)C(=O)N2CCN(C(=O)COc4ccc(OC(F)(F)F)cc4Cl)CC2C(=O)N3)cc(C(F)(F)F)c1 (stereo not drawn) [Example 105, 2-(2-(2-chloro-4-(trifluoromethoxy)phenoxy)acetyl)-8-(3-methyl-5-(trifluoromethyl)phenyl)-1,3,4,12a-tetrahydrobenzo[e]pyrazino[1,2-a][1,4]diazepine-6,12 (2H, 11H)-dione] | 81.13-152.31% | 143.62% | EC50 [1]: 84.2 to 219 nM
14 | O=C1Nc2ccc(-c3ccc(C(F)(F)F)s3)cc2C(=O)N2CCN(C(=O)COc3ccccc3)CC12 (stereo not drawn) [Example 107, 2-(2-phenoxyacetyl)-8-(5-(trifluoromethyl)thiophen-2-yl)-1,3,4,12a-tetrahydrobenzo[e]pyrazino[1,2-a][1,4]diazepine-6,12 (2H, 11H)-dione] |  | 27.96% | 
15 | Cc1cc(OC(F)(F)F)ccc1OCC(=O)N1CCN2C(=O)c3cc(-c4cccc(C(F)(F)F)n4)ccc3NC(=O)C2C1 (stereo not drawn) [Example 108, 2-(2-(2-methyl-4-(trifluoromethoxy)phenoxy)-acetyl)-8-(6-(trifluoromethyl)pyridin-2-yl)-1,3,4,12a-tetrahydrobenzo[e]pyrazino[1,2-a][1,4]diazepine-6,12 (2H, 11H)-dione] | 38.19% |  | 
16 | O=C1Nc2ccc(-c3cccc(C(F)(F)F)c3)cc2C(=O)N2CCN(C(=O)COc3ccccc3)C[C@@H]12 [Example 112, (S)-2-(2-phenoxyacetyl)-8-(3-(trifluoromethyl)phenyl)-1,3,4,12a-tetrahydrobenzo[e]pyrazino[1,2-a][1,4]diazepine-6,12 (2H, 11H)-dione] |  | 12.93% | 
17 | O=C1Nc2ccc(-c3cccc(C(F)(F)F)c3)cc2C(=O)N2CCN(C(=O)COc3ccccc3)C[C@H]12 [Example 115, (R)-2-(2-phenoxyacetyl)-8-(3-(trifluoromethyl)phenyl)-1,3,4,12a-tetrahydrobenzo[e]pyrazino[1,2-a][1,4]diazepine-6,12 (2H, 11H)-dione] |  | 3.69% | 
18 | O=C1Nc2ccc(-c3cccc(C(F)(F)F)c3)cc2C(=O)N2CCN(C(=O)COc3ccc(OC(F)(F)F)cc3Cl)C[C@@H]12 [Example 117, (S)-2-(2-(2-chloro-4-(trifluoromethoxy)phenoxy)acetyl)-8-(3-(trifluoromethyl)phenyl)-1,3,4,12a-tetrahydrobenzo[e]pyrazino[1,2-a][1,4]diazepine-6,12 (2H, 11H)-dione] | 77.84% |  | EC50 [1]: 15.6 nM
